Measurements as given in patent publication US20130053277A1 (priority 2010, published 2013).

Tests used:
[1] = target: M2 H+ channel, Singapore wild-type (Influenza A virus, UniProt P10920); type: cell-based, Influenza A (Singapore H2N2 isolate)
[2] = target: influenza A virus M2 proton-selective ion channel, wild-type (Influenza A virus, UniProt P0DOF5); settings: cited from earlier work
Chain of influenza A virus M2 proton-selective ion channel, wild-type (P0DOF5 whole entry, looked up): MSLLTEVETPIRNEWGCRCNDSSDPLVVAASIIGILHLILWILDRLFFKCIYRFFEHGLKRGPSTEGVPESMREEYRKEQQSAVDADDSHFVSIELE

Chain of M2 H+ channel, Singapore wild-type (P10920 whole entry, looked up): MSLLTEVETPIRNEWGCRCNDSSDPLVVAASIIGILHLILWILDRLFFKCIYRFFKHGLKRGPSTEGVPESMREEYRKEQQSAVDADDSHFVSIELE

Compound	Ks (Monod coefficient, inhibitory constant) [1]	relief of growth inhibition by the channel from the Singapore strain [1]	isochronic apparent inhibitory binding constant [2]	Ks (dynamic range statement) [1]	activity (growth retardation relief, O.D.600) compared between the two drugs [1]	relief of growth retardation of bacteria expressing the M2 channel [1]
NC12CC3CC(CC(C3)C1)C2 [amantadine, Amantadine]	140 nM	substantially relieved	16 µM			
CC(N)C12CC3CC(CC(C3)C1)C2 (centres unmarked) [rimantadine, Rimantadine]	15 nM	substantially relieved		15 nm	more pronounced than amantadine	significantly alleviate
